The record followed here is ChEMBL document CHEMBL1201862, “PubChem BioAssay data set” (2004).

The structures appear in SMILES notation. Activity calls are given as the source filed them.

The nature of experiment [1]: bead-based luminescence quenchers, dual-tagged ARNT – biochemical, AlphaScreen, cherry-pick, artefact control for ARNT-TACC3 interaction inhibitor project, dose response (AID 651705).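 Note: AlphaScreen bead proximity signal that flags compounds interfering with the detection technology; potency reflects signal decrease which marks the compound as an assay artifact.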 It is filed as functional. In general terms: Bead proximity is the source of the signal in Alpha formats.
Experiment [2] has as its target T1, Interleukin-8 (Homo sapiens, UniProt P10145).
T1 sequence (P10145 whole entry): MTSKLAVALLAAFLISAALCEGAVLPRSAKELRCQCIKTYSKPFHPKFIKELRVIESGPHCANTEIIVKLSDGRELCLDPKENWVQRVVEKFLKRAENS
As to the kind of experiment: Dose Response confirmation of uHTS small molecule hits for cystic fibrosis induced NFkb Inhibitors in a PAF-induced IL8 counterscreen. It counts as functional. The settings on record: read-out: IC50_Mean. For orientation: A counterscreen serves to expose hits that act by an unwanted route or on another target.

In experiment [3] the target is T2, Corticotropin-releasing factor receptor 2/Corticotropin-releasing factor-binding protein (Homo sapiens, UniProt P24387+Q13324).
T2 sequence (Q13324 whole entry): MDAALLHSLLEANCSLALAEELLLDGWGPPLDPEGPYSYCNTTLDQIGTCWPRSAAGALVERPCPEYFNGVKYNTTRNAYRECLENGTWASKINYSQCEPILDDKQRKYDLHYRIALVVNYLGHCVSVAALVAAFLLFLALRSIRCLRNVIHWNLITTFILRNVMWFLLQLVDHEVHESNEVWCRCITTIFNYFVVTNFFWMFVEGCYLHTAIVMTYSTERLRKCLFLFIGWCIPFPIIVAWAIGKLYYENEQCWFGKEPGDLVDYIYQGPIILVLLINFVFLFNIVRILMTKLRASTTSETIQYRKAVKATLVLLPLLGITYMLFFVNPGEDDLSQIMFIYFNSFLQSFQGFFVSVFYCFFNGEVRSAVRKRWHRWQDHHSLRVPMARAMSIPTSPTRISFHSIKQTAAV
T2 sequence (P24387 whole entry): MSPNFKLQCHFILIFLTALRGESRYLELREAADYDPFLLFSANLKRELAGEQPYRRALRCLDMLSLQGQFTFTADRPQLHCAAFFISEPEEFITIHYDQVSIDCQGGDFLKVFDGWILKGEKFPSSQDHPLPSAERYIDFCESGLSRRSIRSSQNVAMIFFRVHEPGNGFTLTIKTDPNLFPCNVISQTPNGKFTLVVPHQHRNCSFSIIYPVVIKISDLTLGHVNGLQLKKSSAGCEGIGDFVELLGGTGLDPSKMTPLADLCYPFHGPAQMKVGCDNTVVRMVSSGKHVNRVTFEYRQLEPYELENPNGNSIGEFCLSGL
The experiment is described as follows: Dose Response confirmation of uHTS hits for small molecule antagonists of the CRF-binding protein and CRF-R2 receptor complex. It is filed as functional. The note with it: read-out: IC50_Mean.

Experiment [4] addresses T2, Corticotropin-releasing factor receptor 2/Corticotropin-releasing factor-binding protein. As to the kind of experiment: activators of CRF receptor 2 with binding protein – uHTS hits, confirmation (AID 602473). It counts as functional. The settings on record: read-out: EC50_Mean.
Experiment [5] in a line: blockers of CRF-binding protein–CRF-R2 complex – cell-based, uHTS hits, 384-well, dose response (AID 651639). It is filed as functional, Homo sapiens. The settings on record: read-out: IC50_Mean.
In experiment [6] the test system is Streptococcus sp. 'group A'. As to the kind of experiment: Streptococcus pyogenes SK(-)GAS viability under kanamycin – luminescence, BacTiterGlo, confirmation, counter-screen for streptokinase expression inhibitor project, dose response (AID 1900). It is filed as functional, organism-based.
For experiment [7], the system named is Streptococcus. The experiment is described as follows: GAS UMAA2166 growth inhibition – luminescence, BacTiterGlo, counter-screen for streptokinase expression inhibitor project, dose response (AID 1915).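 Note: potency for reduction of bacterial viability or growth.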 It is filed as functional, organism-based.
For experiment [8], the target named is T3, Tyrosine-protein phosphatase non-receptor type 11 (Homo sapiens, UniProt Q06124).
T3 sequence (Q06124 whole entry): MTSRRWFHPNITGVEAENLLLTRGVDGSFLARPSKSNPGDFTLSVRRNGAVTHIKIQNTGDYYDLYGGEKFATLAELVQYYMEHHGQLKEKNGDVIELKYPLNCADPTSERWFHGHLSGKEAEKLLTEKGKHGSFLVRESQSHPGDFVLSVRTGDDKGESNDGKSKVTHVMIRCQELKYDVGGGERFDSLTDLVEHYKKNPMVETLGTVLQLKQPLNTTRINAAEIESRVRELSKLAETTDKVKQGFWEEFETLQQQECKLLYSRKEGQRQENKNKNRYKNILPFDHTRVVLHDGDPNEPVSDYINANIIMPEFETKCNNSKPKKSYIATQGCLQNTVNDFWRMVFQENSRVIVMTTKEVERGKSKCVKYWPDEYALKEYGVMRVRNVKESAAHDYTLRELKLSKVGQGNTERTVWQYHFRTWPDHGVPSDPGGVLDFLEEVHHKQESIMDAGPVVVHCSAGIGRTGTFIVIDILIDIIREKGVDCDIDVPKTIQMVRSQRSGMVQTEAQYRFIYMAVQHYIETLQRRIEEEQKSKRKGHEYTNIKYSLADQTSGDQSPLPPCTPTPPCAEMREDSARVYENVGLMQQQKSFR
As to the kind of experiment: PTPN11 enzyme inhibitors – biochemical, selectivity assay for STEP inhibitor project, dose response (AID 602367). It is filed as functional. The note with it: read-out: IC50_Mean.

For experiment [9], the target named is T4, Tyrosine-protein phosphatase non-receptor type 5 (Homo sapiens, UniProt P54829).
T4 sequence (P54829 whole entry): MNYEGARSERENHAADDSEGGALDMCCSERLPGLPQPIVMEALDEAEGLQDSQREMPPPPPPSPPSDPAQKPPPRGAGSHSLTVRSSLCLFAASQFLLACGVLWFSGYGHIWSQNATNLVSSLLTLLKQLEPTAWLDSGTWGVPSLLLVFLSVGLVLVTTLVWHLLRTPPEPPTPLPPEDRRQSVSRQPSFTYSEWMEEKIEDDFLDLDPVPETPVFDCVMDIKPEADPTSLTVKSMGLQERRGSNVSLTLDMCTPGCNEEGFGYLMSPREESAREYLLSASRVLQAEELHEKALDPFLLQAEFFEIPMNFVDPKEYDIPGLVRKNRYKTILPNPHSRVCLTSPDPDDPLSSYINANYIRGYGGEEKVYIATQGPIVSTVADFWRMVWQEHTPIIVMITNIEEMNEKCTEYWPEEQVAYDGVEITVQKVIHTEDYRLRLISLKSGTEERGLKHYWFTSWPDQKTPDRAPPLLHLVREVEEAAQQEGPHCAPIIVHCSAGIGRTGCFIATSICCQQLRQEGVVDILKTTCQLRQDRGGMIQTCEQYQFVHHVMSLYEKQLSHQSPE
The experiment is described as follows: PTPN5 enzyme inhibition – biochemical, fluorescence intensity, uHTS hits, confirmation (AID 602372). It is filed as functional. The note with it: read-out: IC50_Mean.

The target of experiment [10] is Dual specificity protein phosphatase 3 (Homo sapiens, UniProt P51452). As to the kind of experiment: VHR phosphatase inhibition, dose response, selectivity assay for STEP inhibitor project, biochemical (AID 602374). It is filed as functional. The settings on record: read-out: IC50_Mean.
Sequence of Dual specificity protein phosphatase 3 (P51452 whole entry): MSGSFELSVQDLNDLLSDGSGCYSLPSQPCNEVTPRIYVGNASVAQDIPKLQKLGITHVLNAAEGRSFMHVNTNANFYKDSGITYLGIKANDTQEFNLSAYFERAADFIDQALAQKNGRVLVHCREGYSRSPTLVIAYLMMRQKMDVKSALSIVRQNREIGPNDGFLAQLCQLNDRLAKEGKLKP
In experiment [11] the target is T5, Low molecular weight phosphotyrosine protein phosphatase (Homo sapiens, UniProt P24666).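 Note: Dose-response confirmation assay measuring inhibition of LMPTP enzyme activity by fluorescence intensity read-out.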
T5 sequence (P24666 whole entry): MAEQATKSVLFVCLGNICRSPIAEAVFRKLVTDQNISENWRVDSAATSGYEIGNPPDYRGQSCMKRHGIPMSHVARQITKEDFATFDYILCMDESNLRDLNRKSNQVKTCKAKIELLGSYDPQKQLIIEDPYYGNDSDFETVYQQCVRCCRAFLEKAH
It counts as functional. The note with it: read-out: IC50_Mean.

In experiment [12] the target is T6, Adenosylmethionine-8-amino-7-oxononanoate aminotransferase (Mycobacterium tuberculosis, UniProt P9WQ81).
T6 sequence (P9WQ81 whole entry): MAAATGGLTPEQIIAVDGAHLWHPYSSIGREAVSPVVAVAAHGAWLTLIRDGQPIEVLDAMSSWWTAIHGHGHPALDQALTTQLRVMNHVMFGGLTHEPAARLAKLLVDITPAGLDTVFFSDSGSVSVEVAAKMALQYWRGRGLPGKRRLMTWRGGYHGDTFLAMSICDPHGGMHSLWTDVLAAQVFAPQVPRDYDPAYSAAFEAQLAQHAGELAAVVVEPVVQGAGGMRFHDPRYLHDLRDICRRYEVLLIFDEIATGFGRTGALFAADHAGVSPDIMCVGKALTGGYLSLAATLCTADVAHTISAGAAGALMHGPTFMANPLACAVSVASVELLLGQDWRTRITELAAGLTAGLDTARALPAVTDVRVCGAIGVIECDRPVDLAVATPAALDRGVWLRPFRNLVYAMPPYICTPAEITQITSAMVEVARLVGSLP
The experiment is described as follows: Mycobacterium tuberculosis BioA enzyme inhibitor Measured in Biochemical System Using Plate Reader - 2163-02_Inhibitor_Dose_CherryPick_Activity. It counts as functional, Mycobacterium tuberculosis UT205.

For experiment [13], the target named is T7, Aryl hydrocarbon receptor (Homo sapiens, UniProt P35869).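 Note: confirmatory quantitative high-throughput screen measuring activation of the AhR signaling pathway.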
T7 sequence (P35869 whole entry): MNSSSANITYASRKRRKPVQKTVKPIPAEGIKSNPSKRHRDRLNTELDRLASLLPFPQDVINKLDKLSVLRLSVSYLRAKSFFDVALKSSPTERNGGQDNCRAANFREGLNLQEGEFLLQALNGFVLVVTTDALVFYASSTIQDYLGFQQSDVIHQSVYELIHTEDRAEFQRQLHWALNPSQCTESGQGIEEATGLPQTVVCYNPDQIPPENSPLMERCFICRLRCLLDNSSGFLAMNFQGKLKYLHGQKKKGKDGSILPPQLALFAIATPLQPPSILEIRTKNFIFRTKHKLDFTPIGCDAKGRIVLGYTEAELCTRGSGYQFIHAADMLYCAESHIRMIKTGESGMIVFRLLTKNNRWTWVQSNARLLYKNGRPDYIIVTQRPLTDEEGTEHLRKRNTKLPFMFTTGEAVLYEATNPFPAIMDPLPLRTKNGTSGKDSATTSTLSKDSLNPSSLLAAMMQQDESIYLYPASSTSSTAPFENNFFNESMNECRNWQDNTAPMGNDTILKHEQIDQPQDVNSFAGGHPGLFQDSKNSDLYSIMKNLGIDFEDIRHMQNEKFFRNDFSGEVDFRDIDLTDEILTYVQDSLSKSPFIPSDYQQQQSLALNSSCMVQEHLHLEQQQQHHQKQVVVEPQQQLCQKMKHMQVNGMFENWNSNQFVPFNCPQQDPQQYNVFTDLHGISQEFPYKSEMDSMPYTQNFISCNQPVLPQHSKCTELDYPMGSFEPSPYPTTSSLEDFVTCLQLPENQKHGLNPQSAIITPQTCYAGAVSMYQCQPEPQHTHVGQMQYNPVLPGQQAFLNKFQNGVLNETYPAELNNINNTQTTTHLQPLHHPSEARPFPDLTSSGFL
The settings on record: Potency.

Experiment [14] has as its target T8, Probable nicotinate-nucleotide adenylyltransferase (Staphylococcus aureus (strain N315), UniProt P65502). It is filed as functional, Staphylococcus aureus subsp. aureus N315.
Experiment [15] concerns the target T8, Probable nicotinate-nucleotide adenylyltransferase. It is filed as functional, Staphylococcus aureus subsp. aureus N315. The settings on record: read-out: IC50_Mean.

T8 sequence (P65502 whole entry): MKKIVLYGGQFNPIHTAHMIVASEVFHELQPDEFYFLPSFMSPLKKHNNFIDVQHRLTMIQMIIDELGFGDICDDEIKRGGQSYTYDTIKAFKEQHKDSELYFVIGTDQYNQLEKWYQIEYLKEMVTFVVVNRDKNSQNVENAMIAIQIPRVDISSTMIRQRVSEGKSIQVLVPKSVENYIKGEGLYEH

As a reminder, the AC50 is the midpoint of the concentration-response curve, whichever way the signal moves. Regarding `COc1ccc(C(=O)Oc2cccc3cccnc23)cc1[N+](=O)[O-]`, in experiment [1], the AC50 was 135 µM (active).

On to `C#CCN(C[C@@H]1[C@@H](OC(=O)NC2CC2)[C@@H](OC(=O)NC2CC2)Cn2c(=O)ccc(=O)n21)S(=O)(=O)c1ccc(C)cc1`, for which the IC50 in [2] was 6.06 µM (active).

Regarding `N#Cc1ccsc1NC(=O)c1cccc([N+](=O)[O-])c1`, the figures for the IC50 in [3] and in experiment [5] were 3.12 µM (active) and > 20 µM (inactive), respectively. Besides, the EC50 in [4] is 4.08 µM (active).

For `C=CC1=C(C(=O)O)N2C(=O)C(NC(=O)Cc3ccccc3)C2SC1` (centres undefined), the EC50 in [6] is 0.169 µM (active); in experiment [7], 0.269 µM (active). The IC50 in experiment [8] was 4.42 µM (active); in experiment [9] it was 52.9 µM (inactive); in experiment [10], 7.17 µM (active); in [11], 42.8 µM (inactive).

Regarding `CO[C@H]1CN(C)C(=O)c2ccc(NC(C)=O)cc2OC[C@@H](C)N(C(=O)C2CCCCC2)C[C@H]1C`, the half-maximal activity concentration (AC50) in experiment [12] is 6.6 µM (active).

For the compound `CCNc1nc(NCC)nc(SC)n1`, in experiment [13], the concentration at half-maximal activity (AC50) is 0.447 µM (inconclusive).

With `O=C(Nc1nnc(C2=COCCO2)o1)c1ccc(Cl)cc1`, the AC50 in [1] was 85.8 µM (active).

On to `Cc1ccc(-n2nc3c(c2NC(=O)/C=C\c2ccc4c(c2)OCO4)CSC3)c(C)c1`, for which the IC50 in experiment [14] is 5.88 µM (active); in experiment [15], 21.5 µM (active).

Regarding `Cc1ccc(S(=O)(=O)N2CCCCC2)cc1C(=O)N(CCc1ccccc1)Cc1ccccc1`, the results for the IC50 in experiment [3] and in [5] were 1.19 µM (active) and 19.3 µM (active), respectively. The EC50 in experiment [4] was > 53 µM (inactive).

With `Cc1c(NC(=O)c2cc3ccccc3o2)cccc1-n1cnnn1`, the AC50 in experiment [12] is 6.18 µM (active).

`CN1CCC2(CC1)N=C(c1ccc(F)cc1)C(=S)N2`: the IC50 is 8.94 µM (active) in experiment [8], 41.6 µM (inactive) in experiment [9] and 2.69 µM (active) in [10].

As to `CCOc1ccc(S(=O)(=O)n2ccc(C)n2)c2ccccc12`, the IC50 was < 0.368 µM (active) in experiment [3] and 11.7 µM (active) in experiment [5]. Also, the EC50 in [4] was 21.2 µM (active).

In the case of `Nc1ccccc1C(=O)NNC(=O)/C(O)=C/C(=O)c1ccccc1`, the IC50 in experiment [14] is 4.63 µM (active); in experiment [15], 12 µM (active).

Turning to `CN1c2ccc(-c3cccc(F)c3)cc2[C@H]2[C@H](CCN2C(=O)c2ccc3c(c2)OCO3)[C@H]1CO`, in experiment [12], the AC50 is 0.075 µM (active).
